These results are taken from paper PMC13334477 (RSC Medicinal Chemistry, 2026).

Test [1] deals with rLTR4-5′Cy5 (parallel RNA G4). In words: Ligand-induced fluorescence quenching assay (FQA), rLTR4-5′Cy5. The class given is binding, HIV-1. How it is done:
(§1) Cy5 labelled oligonucleotides were purchased lyophilized and RP-cartridge purified from Eurogentec (Kanaka Eurogentec, Seraing, Belgium). The ligand-induced fluorescence quenching assay was conducted as previously described.[47] A Stratagene Mx3005P instrument was used to carry out the assay in 96-well plates. The filters for excitation and emission were set at 635 nm and 665 nm, respectively. The gain was used at 8×. The labeled oligonucleotide was used at 10 nM, and the buffer was 10 mM lithium cacodylate (pH 7.2), 10 mM KCl, and 90 mM LiCl in a final volume of 50 μL. The oligonucleotide was heated at 90 °C for 5 min and put in ice to anneal. The ligand was added over a range of concentrations between 0 and 80 μM. A competitor, ds26, was also added at 3 or 10 μM. Each experimental condition was tested in triplicate except for the ligand alone with the buffer, which was tested in duplicate. The instrument was programmed to heat the plate for 10 min at 25 °C and measure the fluorescence after 1 min for 5 cycles. The fluorescence of each sample was normalized, and the fluorescence of the ligand alone was subtracted.
(§2) We then addressed the binding of the DBA series to the rLTR4 RNA G4. The FRET melting assay was not appropriate for investigating ligand binding to this RNAs due to its high thermal stability (Tm > 72 °C).[26] We have therefore used a ligand-induced fluorescence quenching assay (FQA) to analyse the interaction of the DBAs with either 5′ or 3′ fluorescently labelled RNAs (Fig. S8). Since planar G4-ligands generally stack on an accessible G-quartet,[94–96] we expect the DBAs to also recognize G4s by stacking interactions. To conduct a fluorescence quenching experiment, a CY5 fluorophore is attached on the 3′ or 5′ end of the RNA. […] Thus, upon interaction of the ligand with the G-quartet, the ligand induces the quenching of the fluorescence emission. This test enables determination of the apparent association constants (Ka) of each DBA with the 5′ or 3′ quartet of the G4 structure (Fig. 4, Table S3). […] A similar difference in G-tetrad binding affinities has previously been observed for TMPyP4 and PhenDC3.[47]
(§3) The fluorescently labeled oligonucleotides were dissolved at a concentration of 10 nM in 10 mM lithium cacodylate buffer (pH 7.2) with 10 mM KCl and 90 mM LiCl. […] Data are the results of at least three independent experiments in which each data point was performed in duplicate.

Another test deals with rLTR4 RNA G4. As to the kind of experiment: Native ESI-MS, rLTR4. Particulars: 10 μM RNA, 20 μM ligand, 100 mM ammonium acetate. The format is binding, HIV-1. Here is the method: (§4) Oligonucleotides were purchased lyophilized and RP-cartridge purified from Eurogentec (Kanaka Eurogentec, Seraing, Belgium), then buffer exchanged with ammonium acetate (5 M; Sigma-Aldrich, Saint-Quentin-Fallavier, France) using Amicon Ultra (3 K cut-off; Merck Millipore, Cork, Ireland). The concentrations of the initial stock solutions of DNA/RNA (∼1 mM) were measured by UV absorbance at 260 nm. Sample solutions were prepared by diluting the appropriate volume of oligonucleotide stock solutions to reach 10 μM of DNA/RNA and 20 μM of ligand, in 100 mM ammonium acetate. The solutions were incubated for 16 h at 4 °C before analysis by mass spectrometry. […] These parameters ensured a good signal intensity without disrupting noncovalent complexes, which was verified using d[G4T4G4]2 as a control. The presented spectra of all DNA/RNA used in this work (Fig. 5, S9 and S10) result from 8 min accumulations. The abundance of each species, M, M + 1L, M + 2L and M + 3L complexes, where M is a monomer oligonucleotide and L is a ligand, was determined from their peak area signals (A), from the sum of the −4, −5 and −6 charge states for DNA and from the sum of the −5, −6 and −7 charge states for RNA, assuming that their response factors are equal. The molar concentrations were then calculated knowing the total amount of oligonucleotide [M]tot: [drawing 1] [drawing 2] [drawing 3] [drawing 4] The concentration of the free ligand, [L]free, was determined from its total concentration [L]tot:[L]free = [L]tot − [M + 1L] − 2[M + 2L] − 3[M + 3L]Apparent consecutive dissociation constants (Kd1, Kd2 and Kd3) were calculated by using the following equations: [drawing 5] [drawing 6] [drawing 7]
(§5) We further analysed the formation of the DBA/G4 complexes by native electrospray ionization mass spectrometry (ESI-MS). We initially attempted to analyze DBA binding to the primary G4 targets from HIV-1 (HIVpro1, HIVpro2, LTR4 and rLTR4 RNA). […] These sequences span the major G4 topological classes and provide a representative assessment of DBA binding across diverse G4 architectures. We also included two DNA duplex controls (DK100 and DK66) to evaluate binding selectivity. This ESI-MS approach enables direct determination of binding stoichiometry, quantification of each species in solution, and calculation of dissociation constants (Kd) from the relative abundances of free and bound forms.[88,97]
(§6) In the ESI-MS conditions, the rLTR4 G4 (10 μM) forms a dimeric structure. […] Among the six DNA and RNA tested here (Fig. 5B, S9 and S10) only rLTR4 presented 1 : 3 G4/DBA complexes. In all cases but one, the 1 : 1 stoichiometry represents the major species in solution while for rLTR4 it is the 1 : 2 (green). […] For TG4T tetramolecular G4 or G4T4G4 bimolecular G4 only 1 : 1 and 1 : 2 complexes were detected (Fig. S9A and S10A). […] The weakest binding was obtained for the G4T4G4 antiparallel G4 and Htel sequence with Kd1s ranging from 11 μM for to 500 μM (Table 2).

Another test addresses DK100 DNA duplex. As to the kind of experiment: Native ESI-MS, DK100. Particulars: 10 μM DNA, 20 μM ligand, 100 mM ammonium acetate. The class given is binding. How it is done: as §4, §5, §6
Test [2] deals with rLTR4-3′Cy5 (parallel RNA G4). As to the kind of experiment: Ligand-induced fluorescence quenching assay (FQA), rLTR4-3′Cy5. The format is binding, HIV-1. How it is done: as §1, §2, §3
The next test has as its target DK66 DNA duplex. In words: Native ESI-MS, DK66. The class given is binding. Particulars: 10 μM DNA, 20 μM ligand, 100 mM ammonium acetate. Here is the method: as §4, §5, §6
For test [3], the target named is Htel DNA G4 (human telomeric). As to the kind of experiment: Native ESI-MS, Htel. The class given is binding. Particulars: 10 μM DNA, 20 μM ligand, 100 mM ammonium acetate. How it is done:
as §4, §5, §6

Where two headings read alike, the source gives them in different places.

Regarding `COc1ccc(-[n+]2c3ccc4cc(OC)ccc4c3cc3c4ccc(OC)cc4ccc32)cc1` [DBA3], the “Ka rLTR4-5′Cy5 FQA” value is recorded as 0.9±0.07 10^5 M in test [1] (+10µM ds26) and 1.2±0.06 10^5 M in test [1] (No ds26). Further, the Kd in test [1] (+10µM ds26) came to 11.1 ± 1.4 µM; in test [1] (No ds26), 8.7 ± 1.6 µM; on rLTR4 RNA G4 (read-out: Kd1 rLTR4), 12.2 µM; at rLTR4 RNA G4 (read-out: Kd2 rLTR4) it was 0.14 µM; on rLTR4 RNA G4 (read-out: Kd3 rLTR4), 31 µM; at DK100 DNA duplex (read-out: Kd1 DK100), 156 µM. Moreover, the Kd at DK100 DNA duplex (read-out: Kd2 DK100) was found to be 618 µM; in test [2] (+10µM ds26), 6.9 ± 1.1 µM; in test [2] (No ds26) it was 6.2 ± 1 µM; on DK66 DNA duplex (read-out: Kd1 DK66), 1070 µM; in test [3] (read-out: Kd1 Htel), 52.4 µM; in test [3] (read-out: Kd2 Htel) it was 27.2 µM. Besides, the figures for the “Ka rLTR4-3′Cy5 FQA” value in test [2] (+10µM ds26) and in test [2] (No ds26) were 1.5±0.09 10^5 M and 1.6±0.11 10^5 M, respectively.
As for `COC(=O)c1ccc(-[n+]2c3ccc4cc(OC)ccc4c3cc3c4ccc(OC)cc4ccc32)cc1` [DBA2], the “Ka rLTR4-5′Cy5 FQA” value in test [1] (+10µM ds26) is recorded as 0.9±0.03 10^5 M; in test [1] (No ds26), 1.1±0.03 10^5 M. The Kd in test [1] (+10µM ds26) was found to be 11.6 ± 3.8 µM; in test [1] (No ds26), 9.3 ± 2.9 µM; at rLTR4 RNA G4 (read-out: Kd1 rLTR4) it was 10.9 µM; on rLTR4 RNA G4 (read-out: Kd2 rLTR4), 0.69 µM; on DK100 DNA duplex (read-out: Kd1 DK100), 833 µM; in test [2] (+10µM ds26), 8.6 ± 1.3 µM. Further, the Kd turned out to be 6.7 ± 1.5 µM in test [2] (No ds26), 712 µM on DK66 DNA duplex (read-out: Kd1 DK66), 41.1 µM in test [3] (read-out: Kd1 Htel) and 35.3 µM in test [3] (read-out: Kd2 Htel). Further, the “Ka rLTR4-3′Cy5 FQA” value in test [2] (+10µM ds26) is 1.2±0.08 10^5 M; in test [2] (No ds26) it was 1.5±0.06 10^5 M.
Regarding `COc1ccc2c(ccc3c2cc2c4ccc(OC)cc4ccc2[n+]3-c2ccc([N+](=O)[O-])cc2)c1` [DBA4], the entries for the “Ka rLTR4-5′Cy5 FQA” value in test [1] (+10µM ds26) and in test [1] (No ds26) were 1.2±0.05 10^5 M and 2.3±0.1 10^5 M, respectively. Besides, the Kd in test [1] (+10µM ds26) came out at 8.4 ± 2.1 µM; in test [1] (No ds26), 4.4 ± 1 µM; on rLTR4 RNA G4 (read-out: Kd1 rLTR4), 10.4 µM; on rLTR4 RNA G4 (read-out: Kd2 rLTR4) it was 0.5 µM; at rLTR4 RNA G4 (read-out: Kd3 rLTR4), 21.3 µM; at DK100 DNA duplex (read-out: Kd2 DK100), 142 µM. The Kd in test [2] (+10µM ds26) was found to be 5.3 ± 1.1 µM; in test [2] (No ds26), 3.3 ± 0.4 µM; at DK66 DNA duplex (read-out: Kd1 DK66) it was 165 µM; on DK66 DNA duplex (read-out: Kd2 DK66) it was 308 µM; in test [3] (read-out: Kd1 Htel) it was 11.2 µM; in test [3] (read-out: Kd2 Htel) it was 55.6 µM. Moreover, the entries for the “Ka rLTR4-3′Cy5 FQA” value in test [2] (+10µM ds26) and in test [2] (No ds26) were 1.9±0.1 10^5 M and 3.0±0.24 10^5 M, respectively.
In the case of `c1ccc(-[n+]2c3ccc4ccccc4c3cc3c4ccccc4ccc32)cc1` [DBA5], the “Ka rLTR4-5′Cy5 FQA” value in test [1] (+10µM ds26) is 1.1±0.04 10^5 M; in test [1] (No ds26), 1.6±0.07 10^5 M. The Kd in test [1] (+10µM ds26) was 9.5 ± 2.6 µM; in test [1] (No ds26), 6.2 ± 1.4 µM; on rLTR4 RNA G4 (read-out: Kd1 rLTR4), 4.99 µM; at rLTR4 RNA G4 (read-out: Kd2 rLTR4) it was 10 µM; at rLTR4 RNA G4 (read-out: Kd3 rLTR4) it was 1.47 µM; on DK100 DNA duplex (read-out: Kd1 DK100) it was 40 µM. Besides, the Kd on DK100 DNA duplex (read-out: Kd2 DK100) is 67.7 µM; in test [2] (+10µM ds26), 4 ± 0.6 µM; in test [2] (No ds26), 4 ± 0.3 µM; on DK66 DNA duplex (read-out: Kd1 DK66), 75.4 µM; on DK66 DNA duplex (read-out: Kd2 DK66), 117 µM; in test [3] (read-out: Kd1 Htel), 14.5 µM. In addition, in test [3] (read-out: Kd2 Htel), the Kd is 24.7 µM. For the same molecule, the “Ka rLTR4-3′Cy5 FQA” value is recorded as 2.5±0.2 10^5 M in test [2] (+10µM ds26) and 2.5±0.31 10^5 M in test [2] (No ds26).
For `COc1ccc2c(ccc3c2cc2c4ccc(OC)cc4ccc2[n+]3-c2ccccc2)c1` [DBA1], the “Ka rLTR4-5′Cy5 FQA” value in test [1] (+10µM ds26) was 1.1±0.06 10^5 M; in test [1] (No ds26), 1.8±0.07 10^5 M. The Kd in test [1] (+10µM ds26) was found to be 8.9 ± 1.8 µM; in test [1] (No ds26) it was 5.5 ± 1.5 µM; on rLTR4 RNA G4 (read-out: Kd1 rLTR4) it was 20.2 µM; on rLTR4 RNA G4 (read-out: Kd2 rLTR4), 0.55 µM; on rLTR4 RNA G4 (read-out: Kd3 rLTR4) it was 22.8 µM; on DK100 DNA duplex (read-out: Kd1 DK100), 1030 µM. Moreover, the Kd came to 3.3 ± 0.4 µM in test [2] (+10µM ds26); 3.2 ± 0.5 µM in test [2] (No ds26); 4830 µM on DK66 DNA duplex (read-out: Kd1 DK66); 497 µM in test [3] (read-out: Kd1 Htel); 103 µM in test [3] (read-out: Kd2 Htel). Further, the results for the “Ka rLTR4-3′Cy5 FQA” value in test [2] (+10µM ds26) and in test [2] (No ds26) were 2.8±0.23 10^5 M and 3.1±0.2 10^5 M, respectively.
